Data on 3 molecules can be found in patent US6686445B1, “Synthetic antineoplastic agents derived from dolastatin 15 and methods of making same” (Arizona Board of Regents, acting for and on behalf of …, priority 1997, dated 2004).

Read-outs that look alike come from different tables or passages of the source. Where a SMILES comes first, the peptide text is derived from it. [ ]: non-standard residue; d: D form. The star is where a group is joined. X1 = COC1=CC(=O)N(C(=O)[C@@H](O*)C(C)C)[C@H]1Cc1ccccc1; NMe2Val = CC(C)[C@@H](C(=O)*)N(C)C; NH(thiazol-2-yl) = c1csc(N*)n1; NMeV = CN[C@H](C(=O)O)C(C)C; Hiv = CC(C)[C@H](O)C(=O)O; NHPh = c1ccc(N*)cc1

The subject of test [1] is human CA46 Burkitt lymphoma cells. Description: mitotic arrest in drug-treated CA46 Burkitt cells. Format: cell-based. The note with it: 80 nM drug for 20 hours, control cells 3% mitotic.
Method: To further verify the assumption that this entire series of compounds is acting intracellularly by interfering with tubulin function, the drug-treated Burkitt cells for mitotic arrest were analyzed.
Test [2] has as its system tubulin. The note with it: read-out: tubulin polymerization IC50 (new experiments); 1 M monosodium glutamate-1 mM MgCl2; maximum concentration used 40 μM.
The test system of test [3] is tubulin. The note with it: cited from earlier work.
The subject of test [4] is murine P388 lymphocytic leukemia cells. Description: growth inhibition of murine P388 lymphocytic leukemia cells. Format: cell-based. The note with it: dosage inhibiting tumor cell growth by 50%. As to the method:
(§1) All compounds synthesized were first evaluated for in vitro antitumor activity against murine P388 lymphocytic leukemia cells and against murine L1210 leukemia cells and human CA46 Burkitt lymphoma cells using techniques described by Hamel & Lin (see: HAMEL, E., and LIN, C. M., […], Interaction of combretastatin, a new plant-derived antimitotic agent, with tubulin, Biochemical Pharmacology, 32, 3864). The compounds were also evaluated in the NCI's human tumor 60-cell-line in intro primary screen as described by Monks et al. (see: MONKS, A., SCUDIERO, et al., 1991, New colorimetric cytotoxicity assay for anticancer drug screening, Journal of the National Cancer Institute, 83, 757). Data analyses were performed using methods described by Boyd and Paull (see: BOYD, M. R., et al., 1995, Some practical considerations and applications of the National Cancer Institute in vitro anticancer drug discovery screen, Drug Development Research, 34, 91). A tubulin polymerization inhibition assay was performed according to a modified version of the procedure used previously and described by Muzaffar et al. (see: MUZAFFAR, A., et al., 1990, Antitubulin effects of derivatives of 3-demethylthiocolchicine, methylthio esters of natural colchicinoids, and thioketones derived from thiocolchicine, Comparison with colchicine, Journal of Medicinal Chemistry, 33, 567) to evaluate the effects of dolastatin 15 on cellular microtubule assembly. The new assay for these compounds employed a drug-tubulin preincubation (15 min.) with 10 μM tubulin in 0.8 M glutamate at 30° C., followed by addition of GTP and incubation (20 min.) at 30° C., with tubulin polymerization monitored turbidimetrically in GILFORD recording spectrophotometers.

The subject of test [5] is tubulin. Description: tubulin polymerization inhibition, 0.8 M glutamate at 30° C. Type of test: biochemical. The note with it: read-out: tubulin assembly IC50. As to the method: as §1
Since these high molecular weight polymers, like microtubules, scatter light, they make it impossible to quantify drug effects by turbidimetry or centrifugation. […] (no MgCl2 added to reactions).

Test [6] concerns murine L1210 leukemia cells. The note with it: read-out: Mouse Leukemia L1210 IC50; cells counted after 24 hours of growth. The protocol:
as §1

The subject of test [7] is human CA46 Burkitt lymphoma cells. The note with it: read-out: Human CA46 Burkitt Lymphoma IC50; cells counted after 20 hours. The protocol:
as §1

The test system of test [8] is NCI 60-cell-line in vitro human tumor panel. The note with it: read-out: Mean Panel GI50; mean ± S.D. of triplicate tests (* duplicate). As to the method: as §1
The subject of test [9] is Erwinia carotovora. Description: antimicrobial disk susceptibility test. Format: cell-based. The note with it: twofold dilutions. As to the method: Antimicrobial disk susceptibility tests were performed according to the method established by the National Committee for Clinical Laboratory Standards (NCCLS, 1997). MUELLER-HINTON agar was used for susceptibility testing of Staphylococcus aureus, Enterococcus faecalis, Micrococcus luteus, Escherichia coli, Enterobacter cloacae, Bacillus subtilis, Pseudomonas aeruginosa, and Erwinia carotovora, Gonococcal Typing agar for Neisseria gonorrhoeae, and YM agar for Candida albicans and Cryptococcus neoformans. Immediately prior to susceptibility assays, compounds were reconstituted in sterile DMSO and twofold dilutions applied to sterile 6-mm disks. Zones of inhibition were read at 16 hours for bacterial cultures (except for M. luteus) and 42 hours for fungal cultures and M. luteus. MIC determinations were performed in duplicate.

For orientation: IC50 means the midpoint of a concentration-inhibition curve. A word on the GI50: it is the concentration that inhibits growth by half. Regarding `COC1=CC(=O)N(C(=O)[C@@H](OC(=O)[C@@H]2CCCN2C(=O)[C@@H]2CCCN2C(=O)[C@H](C(C)C)N(C)C(=O)[C@@H](NC(=O)[C@H](C(C)C)N(C)C)C(C)C)C(C)C)[C@H]1Cc1ccccc1` [Compound 1, dolastatin 15] (NMe2Val-V[NMeV]PP-X1), the “% Mitotic Cells” value in [1] turned out to be 31%. The IC50 in test [2] was 19000 ± 300 nM; in [3] (read-out: tubulin polymerization IC50 (Bai et al. 1992), 10 μM tubulin, 1 M monosodium glutamate-1 mM MgCl2, 20 min at 37° C.) it was 23000 nM; in test [5] it was 5200 nM; in test [6] it was 4 nM; in [7], 2 nM. Also, in test [3] (relative to dolastatin 10), the “interaction with purified tubulin weaker than that of dolastatin 10” value is listed as “about 20 fold”. The “Mouse Leukemia P388 ED50” value in [4] came out at 2.4 ng/mL. Also, in test [8], the GI50 was determined as 1.12 ± 0.5 nM. Also, the “Minimum inhibitory concentration, Erwinia carotovora” value in [9] is listed as 3.12-6.25 μg/disk.

Regarding `CC(C)[C@H](NC(=O)[C@H](C(C)C)N(C)C)C(=O)N(C)[C@H](C(=O)N1CCC[C@H]1C(=O)N1CCC[C@H]1C(=O)O[C@H](C(=O)Nc1ccccc1)C(C)C)C(C)C` [Compound 12a] (NMe2Val-V[NMeV]PP[Hiv]-NHPh), in test [1], the “% Mitotic Cells” value is 26%. In [4], the “Mouse Leukemia P388 ED50” value came out at 0.52 ng/mL. For the same molecule, the IC50 in test [5] was determined as 26000 nM; in [6] it was 3 nM; in [7] it was 2 nM. Further, in test [8], the GI50 was determined as 1.25 ± 0.48 nM.

On to `CC(C)[C@H](NC(=O)[C@H](C(C)C)N(C)C)C(=O)N(C)[C@H](C(=O)N1CCC[C@H]1C(=O)N1CCC[C@H]1C(=O)O[C@H](C(=O)Nc1nccs1)C(C)C)C(C)C` [Compound 12p] (NMe2Val-V[NMeV]PP[Hiv]-{NH(thiazol-2-yl)}), for which the “% Mitotic Cells” value in test [1] is recorded as 40%. In test [4], the “Mouse Leukemia P388 ED50” value worked out at 0.26 ng/mL. Also, the figures for the IC50 in test [5], in test [6] and in test [7] were 8400 nM, 2 nM and 4 nM, respectively. Besides, in test [8], the GI50 was 1.2 nM. Besides, the “Minimum inhibitory concentration, Erwinia carotovora” value in test [9] was 50-100 μg/disk.
